# Experimental data from patent US20090170788A1, “NOVEL USE OF 1, 2, 3, 4, 6-PENTA-O-GALLOYL-BETA-D-GLUCOSE” (priority 2006, published 2009).
# Columns and labels:
# type I procollagen [1] = assay: Type I procollagen expression (ELISA) in UV-irradiated human normal dermal fibroblasts; type: cell-based
# Protocol: (§1) Human normal dermal fibroblasts, which were isolated and cultured from the skin dermal layer cut from infant phimosis, were seeded into a 6-well plate at a density of 1×10^5 cells/well, and then cultured in 10% fetal bovine serum-containing DMEM (Dulbecco's modified Eagle's medium) for 24 hours. After the culture, the cells were washed three times with phosphate buffered saline (PBS) and then irradiated with UV A and […] in the following manner in order to induce skin aging. UV A was irradiated using a UV A lamp (Sankyo Denki FL8BL lamp, Sankyo Denki Co., Japan) to a total energy dose of 50 mJ/cm^2 at a rate of 27 mW/cm^2/sec, and UV B was irradiated using a UV B lamp (Sankyo Denki G9T5E lamp, Sankyo Denki Co., Japan) to a total energy dose of 170 mJ/cm^2 at a rate of 1.15 mW/cm^2/sec. […] In order to examine if the skin was aged after the culture, the expression levels of skin intercellular matrix component type I procollagen and its degradation enzyme MMP-1 were measured using a type I procollagen ELISA kit (Procollagen Type I C-Peptide EIA kit, TaKaRa, Japan) and a MMP-1 ELISA kit (MMP-1 human, ELISA system, Biotrak Assay, Amersham Biosciences, USA) according to manufacturer's protocols. […]
# MMP-1 [2] = assay: MMP-1 expression (ELISA) in UV-irradiated human normal dermal fibroblasts; type: cell-based
# Protocol: as §1
# COX-2 = COX-2 protein expression (Western blot) in UV B-irradiated human keratinocytes (HaCaT); type: cell-based; conditions: HaCaT cells, UV B 10 mJ/cm^2, 1, 10, 30, 50 μM, 12 hours
# Protocol: Human keratinocytes (HaCaT cell) provided by professor N. Fusenig (German Cancer Research, Germany) were seeded into a 100 mm culture dish to 1.3×10^6 cells, and then cultured in a DMEM medium containing 10% fetal bovine serum for 24 hours. After the culture, the cells were washed three times with phosphate buffered saline, and then irradiated with UV B in the following manner in order to induce skin aging. UV B was irradiated using an UV B lamp to a total energy dose of 10 mJ/cm^2 at a rate of 0.6 mW/cm^2/sec. Just after the UV irradiation, the cells were washed again with phosphate buffered saline, and 1,2,3,4,6-penta-O-galloyl-beta-D-glucose was added to a DMEM medium containing no fetal bovine serum at concentrations of 1, 10, 30, 50 μM. Then, the cells were further cultured in the medium for 12 hours. Test groups were divided as follows: After the 12-hr culture, the cells were washed with cold phosphate buffered saline, and then treated with lysis buffer to separate a cell protein. Then, the cell protein was subjected to Western blot analysis using a COX-2 antibody (Santa Cruz Biotch., USA) and a horseradish peroxidase-conjugated secondary antibody (ZYMED Laboratories, USA). As a loading control group, […] was used.
# [3] = tested on: albino SKH-1 hairless mice; assay: Wrinkle formation caused by UV light in hairless mouse model (skin photographs, skin replica); type: in vivo; conditions: UV B 10 weeks, topical 10 mg/200 μl/4 cm^2 starting from 4 weeks after UV irradiation
# From the text: Whether 1,2,3,4,6-penta-O-galloyl-beta-D-glucose has the effect of inhibiting wrinkle formation caused by UV light was examined. First, 7-week-old female hairless mice (albino SKH-1 hairless mice, Hanlim Experimental Animal Co., Suwon, Korea) were divided into the following three groups, each consisting of 10 animals.
# (§2) The mice of each of the groups were put in an UV box equipped with an UV B lamp, and were irradiated with UV light at a dose of 100 mJ/cm^2 corresponding to minimal erythemal dose (MED). UV light was irradiated one time a day, three times a week for 4 weeks while increasing the dose of UV light from 100 mJ/cm^2 at the first week to 200 mJ/cm^2 at the second week, 300 mJ/cm^2 at the third week and 400 mJ/cm^2 at the fourth week so as to adapt the mice to UV light. Following the fourth week, the mice were irradiated with UV light at a dose of 400 mJ/cm^2 for 6 weeks, and thus the hairless mice were exposed to UV light for a total of 10 weeks, thereby inducing skin photoaging. (Kilgman L H, Clin Dermatol 14:183-195, 1996). In the case of the test group, starting from 4 weeks after UV irradiation, a composition containing 1,2,3,4,6-penta-O-galloyl-beta-D-glucose was dissolved in a propylene glycol solution containing 30% ethanol (7:3 [v/v] propylene glycol:ethanol) and applied to the skin of the mice in an amount of 10 mg/200 μl/4 cm^2. […]
# [4] = tested on: albino SKH-1 hairless mice; assay: Epidermal thickening induced by UV light in hairless mouse model (H&E staining); type: in vivo; conditions: UV B 10 weeks, topical 10 mg/200 μl/4 cm^2
# From the text: as §2, with “cm^2. In the case of the group treated with UV light alone, a composition containing no 1,2,3,4,6-penta-O-galloyl-beta-D-glucose was applied to the mice in an amount of 200 μl/4 cm^2 in the same manner as the test group.” for “cm^2.”
# [5] = tested on: albino SKH-1 hairless mice; assay: Collagen formation/degradation after UV light in hairless mouse model (masson trichome staining); type: in vivo; conditions: UV B 10 weeks, topical 10 mg/200 μl/4 cm^2
# From the text: as §2, with “cm^2. In the case of the group treated with UV light alone, a composition containing no 1,2,3,4,6-penta-O-galloyl-beta-D-glucose was applied to the mice in an amount of 200 μl/4 cm^2 in the same manner as the test group.” for “cm^2.”
# type I procollagen [6] = assay: Type I procollagen expression in skin of UV-irradiated hairless mice (immunohistochemistry); type: in vivo, mouse; conditions: UV B 10 weeks, topical 10 mg/200 μl/4 cm^2
# From the text: as §2, with “cm^2. In the case of the group treated with UV light alone, a composition containing no 1,2,3,4,6-penta-O-galloyl-beta-D-glucose was applied to the mice in an amount of 200 μl/4 cm^2 in the same manner as the test group.” for “cm^2.”
# MMP-1 [7] = assay: MMP-1 expression in skin of UV-irradiated hairless mice (immunohistochemistry); type: in vivo, mouse; conditions: UV B 10 weeks, topical 10 mg/200 μl/4 cm^2
# From the text: as §2, with “cm^2. In the case of the group treated with UV light alone, a composition containing no 1,2,3,4,6-penta-O-galloyl-beta-D-glucose was applied to the mice in an amount of 200 μl/4 cm^2 in the same manner as the test group.” for “cm^2.”
# [8] = human normal dermal fibroblasts, UV A 50 mJ/cm^2 or UV B 170 mJ/cm^2, 1 and 10 μg/ml, 24 hours, concentration-dependent, vs UV light alone
# [9] = in vitro, UV-irradiated human skin fibroblasts, comparison with EGCG control group
structure (smiles),measurement,setting,value
"O=C(OC[C@H]1O[C@@H](OC(=O)c2cc(O)c(O)c(O)c2)[C@H](OC(=O)c2cc(O)c(O)c(O)c2)[C@@H](OC(=O)c2cc(O)c(O)c(O)c2)[C@@H]1OC(=O)c1cc(O)c(O)c(O)c1)c1cc(O)c(O)c(O)c1 [1,2,3,4,6-penta-O-galloyl-beta-D-glucose]",expression of type I procollagen,type I procollagen [1]; [8],an increase in the expression of type I procollagen
same,expression of type I procollagen compared to EGCG,type I procollagen [1]; [9],marked increase in the expression of type I procollagen compared to the case of treatment with EGCG
same,expression of MMP-1,MMP-1 [2]; [8],a decrease in the expression of MMP-1
same,inhibitory effect on MMP-1 compared to EGCG,MMP-1 [2]; [9],much more superior to the MMP-1 inhibitory effect of EGCG
same,expression of COX-2,COX-2,reduced the expression of COX-2 in a concentration-dependent manner
same,frequency of wrinkle formation,[3],reduced the frequency of wrinkle formation
same,thickening of the skin epidermal layer,[4],the thickening of the skin epidermal layer was significantly decreased
same,amount of collagen,[5],the amount of collagen was increased compared to the group treated with UV light alone
same,amount of damaged collagen,[5],the amount of damaged collagen was decreased
same,expression of type I procollagen in skin tissue,type I procollagen [6],the expression of type I procollagen was increased compared to the group treated with UV light alone
same,expression of MMP-1 in skin tissue,MMP-1 [7],this increase in expression was inhibited
